In publication PMC9669016, “First-in-human phase Ia study of the PI3Kα inhibitor CYH33 in patients with solid tumors” (Nature Communications, 2022):
Read-outs that look alike come from different tables or passages of the source.

Assay: Clinical pharmacokinetics: plasma CYH33 and I27 by LC/MS/MS
Type: in vivo, human
Conditions: for AUC(0-t) / Cmax / Tmax / concentration at 0.5 h / concentration at 24 h / concentration at 72 h / concentration at 4 h / concentration at 12 h / concentration at 0 h / AUC(0-inf) / half-life: human, plasma; for AUC(0-inf): read-out: AUC0-∞, mean (CV%)
Description: The PK characteristics of CYH33 and its active metabolite I27 were evaluated after single and multiple dose administrations. PK data were obtained from 37 patients from 7 dose cohorts: 1 mg (n = 1), 5 mg (n = 1), 10 mg (n = 2), 20 mg (n = 6), 30 mg (n = 12), 40 mg (n = 13), and 60 mg (n = 2). Intensive and sparse PK sampling was performed. Prior to initiating a continuous daily treatment cycle, the first 5 patients participated in a single dose PK treatment period with a 7-day washout in order to determine the terminal-phase half-life (t1/2) of CYH33 and its active metabolite I27. Based on the single dose PK data for CYH33 of the first 5 patients at doses of 1, 5, 10 and 20 mg, the PK and metabolic characteristics of CYH33 and I27 were evaluated. Combined with the pre-specified rules in the protocol and deliberation from the SMC, subsequent patients directly entered the continuous dose phase.
Blood samples for PK evaluation were collected at: (1) during the single dose phase: on day 1 pre-dose and 0.5, 1, 2, 4, 8, 12, 24, 36, 48, and 72 h post-dose; (2) during the continuous dose phase: C1D1/Cycle 1 Day 28 pre-dose, and 0.5, 1, 2, 3, 4, 6, 8, 12, and 24 h post-dose; and C1D8/Day 15 pre-dose. Plasma concentrations of CYH33 and I27 were analyzed using a liquid chromatography-tandem mass spectrometry (LC/MS/MS) assay (Shimadzu Corporation, LC-30AD) with a lower limit of quantification (LLOQ) of 2.585 ng/mL and 1.0 ng/mL for CYH33 and I27, respectively. […] Blood samples for measuring the FBG level were collected within 30 min before dosing on C1D1, C1D15, and on the first day of subsequent treatment cycles.

[1] = CYH33, Cycle 1 Day 28, 1 mg (n=1)
[2] = CYH33, Cycle 1 Day 28, 5 mg (n=1)
[3] = CYH33, Cycle 1 Day 28, 10 mg (n=2)
[4] = CYH33, Cycle 1 Day 28, 20 mg (n=6)
[5] = CYH33, Cycle 1 Day 28, 30 mg (n=9)
[6] = CYH33, Cycle 1 Day 28, 40mg (n=7)
[7] = CYH33, Cycle 1 Day 28, 60 mg (n=2)

With COC(=O)Nc1cc(C(F)(F)F)c(-c2nc(N3CCOCC3)c3cc(CN4CCN(S(C)(=O)=O)CC4)cn3n2)cn1 [CYH33, methyl (5-(6-((4-(methylsulfonyl)piperazin-1-yl)methyl)−4-morpholinopyrrolo[2,1-f][1,2,4]triazin-2-yl)−4-(trifluoromethyl)pyridin-2-yl)carbamate] the “Cmin, mean” value [1] was 0 ng/mL, the “Rac_AUC, mean” value [1] was 2.0 and the “Rac_Cmax, mean” value [1] was 1.0. For the same molecule, the “CLss/F, mean” value [2] was 8.6 L/h, the “Cmin, mean” value [2] was 15.1 ng/mL and the “Rac_AUC, mean” value [2] was 2.2. The “Rac_Cmax, mean” value [2] was 2.3, the “CLss/F, mean” value [3] was 8.2 L/h and the “Cmin, mean” value [3] was 33.4 ng/mL. The “Rac_AUC, mean” value [3] was 2.0, the “Rac_Cmax, mean” value [3] was 1.8 and the “CLss/F, mean” value [4] was 8.1 L/h. The “Cmin, mean” value [4] was 80.8 ng/mL, the “Rac_AUC, mean” value [4] was 4.2 and the “Rac_Cmax, mean” value [4] was 3.3. The “CLss/F, mean” value [5] was 11.0 L/h, the “Cmin, mean” value [5] was 111.4 ng/mL and the “Rac_AUC, mean” value [5] was 2.9. For the same molecule, the “Rac_Cmax, mean” value [5] was 1.9, the “CLss/F, mean” value [6] was 11.8 L/h and the “Cmin, mean” value [6] was 126.5 ng/mL. For the same molecule, the “Rac_AUC, mean” value [6] was 4.3, the “Rac_Cmax, mean” value [6] was 3.2 and the “CLss/F, mean” value [7] was 15.9 L/h. For the same molecule, the “Cmin, mean” value [7] was 133.2 ng/mL, the “Rac_AUC, mean” value [7] was 3.2 and the “Rac_Cmax, mean” value [7] was 2.2. For the same molecule, the “average accumulation of exposure (AUC0-24h) at steady state vs Cycle 1 Day 1” value (daily dosing) was “around 2.9 fold”, the “time to steady state” value (daily dosing) was at most 8 days and the AUC(0-t) (oral, 1 mg, CYH33, Cycle 1 Day 1, 1 mg (n = 1), read-out: AUC0-24h, mean (CV%)) was 26 ng·h/mL. For the same molecule, the Cmax (oral, 1 mg, CYH33, Cycle 1 Day 1, 1 mg (n = 1), read-out: Cmax, mean (CV%)) was 4.6 ng/mL, the Tmax (oral, 1 mg, CYH33, Cycle 1 Day 1, 1 mg (n = 1), read-out: Tmax, median (min-max)) was 1 h and the AUC(0-t) (oral, 1 mg, CYH33, Cycle 1 Day 28, 1 mg (n=1), read-out: AUC0-24h, mean) was 51.6 ng·h/mL. The Cmax (oral, 1 mg, CYH33, Cycle 1 Day 28, 1 mg (n=1), read-out: Cmax, mean) was 4.8 ng/mL, the Tmax (oral, 1 mg, CYH33, Cycle 1 Day 28, 1 mg (n=1), read-out: Tmax, median) was 4 h and the AUC(0-t) (oral, 5 mg, CYH33, Cycle 1 Day 1, 5 mg (n = 1), read-out: AUC0-24h, mean (CV%)) was 266 ng·h/mL. It also gave a Cmax (oral, 5 mg, CYH33, Cycle 1 Day 1, 5 mg (n = 1), read-out: Cmax, mean (CV%)) of 24.6 ng/mL, a Tmax (oral, 5 mg, CYH33, Cycle 1 Day 1, 5 mg (n = 1), read-out: Tmax, median (min-max)) of 2 h and an AUC(0-t) (oral, 5 mg, CYH33, Cycle 1 Day 28, 5 mg (n=1), read-out: AUC0-24h, mean) of 582 ng·h/mL. The Cmax (oral, 5 mg, CYH33, Cycle 1 Day 28, 5 mg (n=1), read-out: Cmax, mean) was 56.2 ng/mL, the Tmax (oral, 5 mg, CYH33, Cycle 1 Day 28, 5 mg (n=1), read-out: Tmax, median) was 1 h and the AUC(0-t) (oral, 10 mg, CYH33, Cycle 1 Day 1, 10 mg (n = 2), read-out: AUC0-24h, mean (CV%)) was 624 ng·h/mL. For the same molecule, the Cmax (oral, 10 mg, CYH33, Cycle 1 Day 1, 10 mg (n = 2), read-out: Cmax, mean (CV%)) was 43.1 ng/mL, the Tmax (oral, 10 mg, CYH33, Cycle 1 Day 1, 10 mg (n = 2), read-out: Tmax, median (min-max)) was 4 h and the AUC(0-t) (oral, 10 mg, CYH33, Cycle 1 Day 28, 10 mg (n=2), read-out: AUC0-24h, mean) was 1230 ng·h/mL. The Cmax (oral, 10 mg, CYH33, Cycle 1 Day 28, 10 mg (n=2), read-out: Cmax, mean) was 78.9 ng/mL, the Tmax (oral, 10 mg, CYH33, Cycle 1 Day 28, 10 mg (n=2), read-out: Tmax, median) was 3 h and the AUC(0-t) (oral, 20 mg, CYH33, Cycle 1 Day 1, 20 mg (n = 5), read-out: AUC0-24h, mean (CV%)) was 763 ng·h/mL. It also gave a Cmax (oral, 20 mg, CYH33, Cycle 1 Day 1, 20 mg (n = 5), read-out: Cmax, mean (CV%)) of 56.3 ng/mL, a Tmax (oral, 20 mg, CYH33, Cycle 1 Day 1, 20 mg (n = 5), read-out: Tmax, median (min-max)) of 2 h and an AUC(0-t) (oral, 20 mg, CYH33, Cycle 1 Day 28, 20 mg (n=6), read-out: AUC0-24h, mean) of 2630 ng·h/mL. The Cmax (oral, 20 mg, CYH33, Cycle 1 Day 28, 20 mg (n=6), read-out: Cmax, mean) was 154 ng/mL, the Tmax (oral, 20 mg, CYH33, Cycle 1 Day 28, 20 mg (n=6), read-out: Tmax, median) was 3 h and the AUC(0-t) (oral, 30 mg, CYH33, Cycle 1 Day 1, 30 mg (n = 12), read-out: AUC0-24h, mean (CV%)) was 1300 ng·h/mL. It also gave a Cmax (oral, 30 mg, CYH33, Cycle 1 Day 1, 30 mg (n = 12), read-out: Cmax, mean (CV%)) of 96.5 ng/mL, a Tmax (oral, 30 mg, CYH33, Cycle 1 Day 1, 30 mg (n = 12), read-out: Tmax, median (min-max)) of 3.5 h and an AUC(0-t) (oral, 30 mg, CYH33, Cycle 1 Day 28, 30 mg (n=9), read-out: AUC0-24h, mean) of 3530 ng·h/mL. The Cmax (oral, 30 mg, CYH33, Cycle 1 Day 28, 30 mg (n=9), read-out: Cmax, mean) was 187 ng/mL, the Tmax (oral, 30 mg, CYH33, Cycle 1 Day 28, 30 mg (n=9), read-out: Tmax, median) was 3 h and the AUC(0-t) (oral, 40 mg, CYH33, Cycle 1 Day 1, 40 mg (n = 3), read-out: AUC0-24h, mean (CV%)) was 1320 ng·h/mL. The Cmax (oral, 40 mg, CYH33, Cycle 1 Day 1, 40 mg (n = 3), read-out: Cmax, mean (CV%)) was 97.9 ng/mL, the Tmax (oral, 40 mg, CYH33, Cycle 1 Day 1, 40 mg (n = 3), read-out: Tmax, median (min-max)) was 2 h and the AUC(0-t) (oral, 40 mg, CYH33, Cycle 1 Day 28, 40mg (n=7), read-out: AUC0-24h, mean) was 3940 ng·h/mL. The Cmax (oral, 40 mg, CYH33, Cycle 1 Day 28, 40mg (n=7), read-out: Cmax, mean) was 224 ng/mL, the Tmax (oral, 40 mg, CYH33, Cycle 1 Day 28, 40mg (n=7), read-out: Tmax, median) was 4 h and the AUC(0-t) (oral, 60 mg, CYH33, Cycle 1 Day 1, 60 mg (n = 4), read-out: AUC0-24h, mean (CV%)) was 1870 ng·h/mL. It also gave a Cmax (oral, 60 mg, CYH33, Cycle 1 Day 1, 60 mg (n = 4), read-out: Cmax, mean (CV%)) of 123 ng/mL, a Tmax (oral, 60 mg, CYH33, Cycle 1 Day 1, 60 mg (n = 4), read-out: Tmax, median (min-max)) of 4 h and an AUC(0-t) (oral, 60 mg, CYH33, Cycle 1 Day 28, 60 mg (n=2), read-out: AUC0-24h, mean) of 4010 ng·h/mL. For the same molecule, the Cmax (oral, 60 mg, CYH33, Cycle 1 Day 28, 60 mg (n=2), read-out: Cmax, mean) was 220 ng/mL, the Tmax (oral, 60 mg, CYH33, Cycle 1 Day 28, 60 mg (n=2), read-out: Tmax, median) was 2.5 h and the concentration at 0.5 h (oral, C1D1, 1 mg) was 1.9 ng/mL. For the same molecule, the concentration at 24 h (oral, C1D1, 1 mg) was 0 ng/mL, the concentration at 0.5 h (oral, C1D1, 5 mg) was 0 ng/mL and the concentration at 24 h (oral, C1D1, 5 mg) was 5.9 ng/mL. The concentration at 72 h (oral, C1D1, 5 mg) was 0 ng/mL, the concentration at 0.5 h (oral, C1D1, 10 mg) was 14 ng/mL and the concentration at 4 h (oral, C1D1, 10 mg) was 43.1 ng/mL. The concentration at 24 h (oral, C1D1, 10 mg) was 17.4 ng/mL, the concentration at 72 h (oral, C1D1, 10 mg) was 3.2 ng/mL and the concentration at 4 h (oral, C1D1, 20 mg) was 43.9 ng/mL. For the same molecule, the concentration at 12 h (oral, C1D1, 20 mg) was 29.5 ng/mL, the concentration at 24 h (oral, C1D1, 20 mg) was 22.3 ng/mL and the concentration at 72 h (oral, C1D1, 20 mg) was 7.1 ng/mL. The concentration at 4 h (oral, C1D1, 30 mg) was 81.2 ng/mL, the concentration at 12 h (oral, C1D1, 30 mg) was 49.9 ng/mL and the concentration at 0.5 h (oral, C1D1, 40 mg) was 33.8 ng/mL. The concentration at 24 h (oral, C1D1, 40 mg) was 45.2 ng/mL, the concentration at 0.5 h (oral, C1D1, 60 mg) was 21.9 ng/mL and the concentration at 24 h (oral, C1D1, 60 mg) was 61.4 ng/mL. It also gave a concentration at 0 h (oral, C1D28, 1 mg) of 0 ng/mL, a concentration at 0 h (oral, C1D28, 5 mg) of 15.5 ng/mL and a concentration at 0 h (oral, C1D28, 10 mg) of 34.8 ng/mL. The concentration at 0 h (oral, C1D28, 20 mg) was 85.1 ng/mL, the concentration at 0 h (oral, C1D28, 30 mg) was 113 ng/mL and the concentration at 24 h (oral, C1D28, 30 mg) was 124 ng/mL. The concentration at 0 h (oral, C1D28, 40 mg) was 141 ng/mL, the concentration at 0 h (oral, C1D28, 60 mg) was 147 ng/mL and the AUC(0-inf) (oral, CYH33, Cycle 1 Day 1, 1 mg (n = 1)) was 36.8 ng·h/mL. It also gave an AUC(0-inf) (oral, CYH33, Cycle 1 Day 1, 5 mg (n = 1)) of 429 ng·h/mL, a half-life (oral, CYH33, Cycle 1 Day 1, 5 mg (n = 1), read-out: t1/2, mean (CV%) (converted)) of 1150 min and an AUC(0-inf) (oral, CYH33, Cycle 1 Day 1, 10 mg (n = 2)) of 1090 ng·h/mL. It also gave a half-life (oral, CYH33, Cycle 1 Day 1, 10 mg (n = 2), read-out: t1/2, mean (CV%) (converted)) of 1210 min, an AUC(0-inf) (oral, CYH33, Cycle 1 Day 1, 20 mg (n = 5)) of 2190 ng·h/mL and a half-life (oral, CYH33, Cycle 1 Day 1, 20 mg (n = 5), read-out: t1/2, mean (CV%) (converted)) of 1250 min. The Tmax (po, dose range 1–60 mg, read-out: median time to maximum plasma concentration (Tmax)) was 1 to 4 h and the half-life (oral CYH33, read-out: t1/2 (converted)) was about 1200 min.
